Test [1] concerns MCP-2. The test can be described thus: MCP-2 ELISA in supernatants of poly-(I:C)-stimulated HaCaT cells. In kind it is cell-based, human. The following applies: poly-(I:C)-stimulated HaCaT; for MCP-2 protein levels: all tested at 5, 10 and 20 μM, data not shown; for MCP-2 production: 6 h. Background: An ELISA detects its analyte on a solid surface through an enzyme-linked reagent.

Test [2] relates to ACD in 2,4-dinitrofluorobenzene (DNFB)-treated wild-type mice. Particulars: Karsak et al. 2007, cited from earlier work.
The subject of test [3] is IL8. The test can be described thus: PolyIC-induced IL8 release in NHEK keratinocytes, ELISA. In kind it is cell-based, human. Particulars: NHEKs; for TLR3-activation induced augmented release of IL8: higher concentration.
The subject of test [4] is IL8. The test can be described thus: UVB-induced IL8 release in HaCaT keratinocytes, ELISA. In kind it is cell-based, human.
Test [5] deals with IL6. The test can be described thus: PolyIC-induced IL6 release in NHEK keratinocytes, ELISA. Particulars: NHEKs; for TLR3-activation induced augmented release of IL6: higher concentration; for PolyIC-induced elevated release of IL6: concentration not singled out (0.3 and 3 μM tested). In kind it is cell-based, human.
The test system of test [6] is IL6. The test can be described thus: UVB-induced IL6 release in HaCaT keratinocytes, ELISA. In kind it is cell-based, human.
The subject of test [7] is human epidermal keratinocytes. The test can be described thus: Summary score, TLR3-induced inflammation model (microbial infection-induced dermatitis). In kind it is cell-based.
For test [8], the system named is IL6. The test can be described thus: UVB-induced IL6 release in NHEK keratinocytes, ELISA. In kind it is cell-based, human. The following applies: NHEKs; for UVB-upregulated expression of IL6: only at given (mostly lower) concentrations; for UVB-upregulated IL6: higher concentrations.
In test [9] the test system is IL6. The test can be described thus: PolyIC-induced IL6 release in HPV-Ker keratinocytes, ELISA. In kind it is cell-based, human. The following applies: HPV-KER cells.
Test [10] deals with human epidermal keratinocytes. The test can be described thus: Summary score, UVB-induced inflammation model (solar dermatitis). In kind it is cell-based.
Test [11] relates to IL8. The test can be described thus: UVB-induced IL8 mRNA expression in HaCaT keratinocytes, RT-qPCR. In kind it is cell-based, human. For orientation: Quantitative PCR measures a nucleic acid by following its amplification.
Test [12] deals with HPV-Ker keratinocytes. The test can be described thus: Summary score, SEB/TSLP-induced inflammation model (atopic dermatitis). The following applies: for SCORE: sum of +1 anti-inflammatory, 0 no effect, −1 pro-inflammatory, Table 3; for Overall action in the SEB/TSLP-induced inflammation model: conclusion on Table 3. In kind it is cell-based, human.
In test [13] the test system is IL6. The test can be described thus: UVB-induced IL6 mRNA expression in HaCaT keratinocytes, RT-qPCR. In kind it is cell-based, human.
For test [14], the system named is IL8. The test can be described thus: SEB/TSLP-induced IL8 release in HPV-Ker keratinocytes, ELISA. In kind it is cell-based, human. The following applies: lower concentrations.
The subject of test [15] is IL8. The test can be described thus: UVB-induced IL8 release in NHEK keratinocytes, ELISA. Particulars: NHEKs; only at given (mostly lower) concentrations. In kind it is cell-based, human.
Where [16] appears, read: concentration not singled out (0.3 and 3 μM tested).
Where [17] appears, read: 0.3 μM, sum of +1 anti-inflammatory, 0 no effect, −1 pro-inflammatory, Table 1.
Setting [18] is: 3 μM, sum of +1 anti-inflammatory, 0 no effect, −1 pro-inflammatory, Table 1.
Where [19] appears, read: 0.3 μM, sum of +1 anti-inflammatory, 0 no effect, −1 pro-inflammatory, Table 2.
Setting [20] is: 3 μM, sum of +1 anti-inflammatory, 0 no effect, −1 pro-inflammatory, Table 2.

Regarding `C=C(C)[C@@H]1CCC(C)=C[C@H]1c1c(O)cc(CCC)c(C(=O)O)c1O` [CBDVA, cannabidivarinic acid], the MCP-2 protein levels result in test [1] is recorded as “No effect”.

As for `CCCCCc1cc(O)c2c(c1)OC(C)(C)[C@@H]1CCC(C)=C[C@@H]21` [THC, tetrahydrocannabinol], the ACD result in test [2] (subcutaneous and topical application) was “attenuated”. Further, in test [2] (vs untreated mice), the ear swelling entry is “significantly decreased” and the “recruitment of Gr-1 positive granulocytes” value is recorded as “reduced”.

Regarding `CCCc1cc(O)c(C/C=C(\C)CCC=C(C)C)c(O)c1` [CBGV, Cannabigervarin], in [3] (setting [16]), the “PolyIC-induced elevated release of IL8” value is given as “did not affect”. In addition, the “UVB-upregulated IL8 (ELISA)” value in [4] (0.3 μM) and in test [4] (3 μM) was “pro-inflammatory effects” each time. Moreover, the “TLR3-activation induced augmented release of IL6” value in [5] and in test [9] (3 μM) was “significantly further augmented” throughout. In addition, the figures for the “UVB-upregulated IL6 (ELISA)” value in test [6] (0.3 μM) and in [6] (3 μM) were “pro-inflammatory effects” and “anti-inflammatory effects”, respectively. Moreover, the SCORE is 5 in test [7] (setting [17]); 5 in test [7] (setting [18]); −1 in test [10] (setting [19]); 2 in test [10] (setting [20]); −1 in test [12] (0.3 μM); 1 in test [12] (3 μM). Also, the “UVB-upregulated expression of IL6” value in test [8] was “significantly suppress”. Moreover, the “PolyIC-induced IL6 levels” value in [9] (0.3 μM) is on record as “did not affect”. Also, the “UVB-upregulated IL8 (RT-qPCR)” value in test [11] (0.3 μM) and in test [11] (3 μM) was “pro-inflammatory effects” each time. Besides, the “UVB-upregulated IL6 (RT-qPCR)” value in test [13] (0.3 μM) and in [13] (3 μM) was “anti-inflammatory effects” throughout. Moreover, in test [1] (10 μM), the MCP-2 production entry is recorded as “able to reduce”.

Take `CCCCCc1cc(O)c(C/C=C(\C)CCC=C(C)C)c(O)c1` [CBG, Cannabigerol]: the “SEB/TSLP-induced up-regulation of IL8 release” value (from here on “SEB/TSLP-induced up-regulation”) in test [14] is “did not induce any significant effect”. Further, the “PolyIC-induced elevated release of IL8” value in [3] (setting [16]) is “dose-dependent suppression”. The “UVB-upregulated IL8 (ELISA)” value in [4] (3 μM) is listed as “pro-inflammatory effects”. For the same molecule, the “PolyIC-induced elevated release of IL6” value in test [5] is on record as “dose-dependent suppression”. Also, the “UVB-upregulated IL6 (ELISA)” value in test [6] (3 μM) is reported as “anti-inflammatory effects”. The SCORE in [7] (setting [17]) came to 5; in test [7] (setting [18]) it was 9; in test [10] (setting [19]), 2; in [10] (setting [20]) it was 3; in test [12] (0.3 μM) it was 0; in [12] (3 μM), 1. Besides, in [8], the “UVB-upregulated IL6” value is on record as “pro-inflammatory effects”. For the same molecule, the “Overall action in the SEB/TSLP-induced inflammation model” value in [12] is recorded as “most effective”. For the same molecule, the “UVB-upregulated expression of IL8” value in test [15] is recorded as “significantly suppress”. In addition, the “UVB-upregulated IL6 (RT-qPCR)” value in test [13] (0.3 μM) and in [13] (3 μM) was “anti-inflammatory effects” in each case. Besides, the figures for the MCP-2 production entry in [1] (5 μM), in test [1] (10 μM) and in [1] (20 μM) were “no effect”, “no effect” and “able to reduce”, respectively.

Turning to `CCCc1cc2c(c(O)c1C(=O)O)[C@@H]1C=C(C)CC[C@H]1C(C)(C)O2` [THCVA, tetrahydrocannabivarinic acid], the MCP-2 protein levels result in [1] is reported as “No effect”.

Regarding `C=C(C)[C@@H]1CCC(C)=C[C@H]1c1c(O)cc(CCCCC)c(C(=O)O)c1O` [CBDA, Cannabidiolic acid], in test [14], the “SEB/TSLP-induced up-regulation” value is reported as “did not induce any significant effect”. Also, the “PolyIC-induced elevated release of IL8” value in [3] (setting [16]) is recorded as “dose-dependent suppression”. Further, the “UVB-upregulated IL8 (ELISA)” value in test [4] (0.3 μM) and in test [4] (3 μM) was “pro-inflammatory effects” in each case. The “PolyIC-induced elevated release of IL6” value in [5] was “dose-dependent suppression”. The “UVB-upregulated IL6 (ELISA)” value in test [6] (0.3 μM) is listed as “pro-inflammatory effects”. Further, the SCORE is on record as 7 in test [7] (setting [17]); 10 in [7] (setting [18]); 1 in test [10] (setting [19]); −1 in test [10] (setting [20]); 0 in test [12] (0.3 μM); 1 in test [12] (3 μM). The “UVB-upregulated IL8 (RT-qPCR)” value in test [11] (0.3 μM) and in test [11] (3 μM) was “pro-inflammatory effects” in each case. In addition, the “Overall action in the SEB/TSLP-induced inflammation model” value in [12] is “most effective”. The “UVB-upregulated expression of IL8” value in test [15] was “significantly suppress”. In addition, the “UVB-upregulated IL6 (RT-qPCR)” value in test [13] (0.3 μM) is “pro-inflammatory effects”. Also, the MCP-2 protein levels result in [1] is listed as “No effect”.

On to `C=C(C)[C@@H]1CCC(C)=C[C@H]1c1c(O)cc(CCC)cc1O` [CBDV, Cannabidivarin], for which, in test [14], the “SEB/TSLP-induced up-regulation” value is given as “did not induce any significant effect”. The “TLR3-activation induced augmented release of IL8” value in test [3] is listed as “significantly further augmented”. In test [4] (3 μM), the “UVB-upregulated IL8 (ELISA)” value is recorded as “anti-inflammatory effects”. For the same molecule, the “PolyIC-induced elevated release of IL6” value in test [5] is reported as “did not affect”. Further, the “UVB-upregulated IL6 (ELISA)” value in test [6] (3 μM) is given as “anti-inflammatory effects”. In addition, the SCORE in test [7] (0.3 µM) amounted to 7; in test [7] (3 µM), 5; in [10] (0.3 µM) it was 2; in [10] (3 µM) it was 5; in test [12] (0.3 μM), 0; in [12] (3 μM), 1. In addition, in [8], the “UVB-upregulated expression of IL6” value is reported as “significantly suppress”. Also, the “UVB-upregulated IL8 (RT-qPCR)” value in test [11] (3 μM) was “anti-inflammatory effects”. The “Overall action in the SEB/TSLP-induced inflammation model” value in [12] is “most effective”. Moreover, the “UVB-upregulated IL6 (RT-qPCR)” value in test [13] (0.3 μM) and in test [13] (3 μM) was “anti-inflammatory effects” throughout.

On to `CCCc1cc(O)c2c(c1)OC(C)(C)[C@@H]1CCC(C)=C[C@@H]21` [THCV, Tetrahydrocannabivarin], for which the “TLR3-activation induced augmented release of IL8” value in [3] is recorded as “did not affect”. In [3] (low concentration), the “PolyIC-induced elevated release of IL8” value is recorded as “significantly suppressed”. In addition, the “UVB-upregulated IL8 (ELISA)” value in [4] (0.3 μM) is given as “anti-inflammatory effects”; in [4] (3 μM), “pro-inflammatory effects”. The “TLR3-activation induced augmented release of IL6” value in test [5] was “significantly further augmented”. Moreover, in test [5] (low concentration), the “PolyIC-induced IL6 level” value is “did not affect”. Also, the entries for the “UVB-upregulated IL6 (ELISA)” value in [6] (0.3 μM) and in test [6] (3 μM) were “anti-inflammatory effects” and “pro-inflammatory effects”, respectively. Besides, the SCORE in [7] (setting [17]) is given as 7; in test [7] (setting [18]), 7; in test [10] (setting [19]) it was 4; in test [10] (setting [20]), 0; in test [12] (0.3 μM), −1; in [12] (3 μM), 1. Besides, the “UVB-upregulated IL6” value in test [8] was “pro-inflammatory effects”. Also, the “UVB-upregulated IL8 (RT-qPCR)” value in [11] (0.3 μM) is listed as “anti-inflammatory effects”. Also, in [13] (3 μM), the “UVB-upregulated IL6 (RT-qPCR)” value is reported as “anti-inflammatory effects”. In addition, the MCP-2 production result is reported as “no effect” in [1] (5 μM), “able to reduce” in [1] (10 μM) and “able to reduce” in test [1] (20 μM).

Turning to `CCCCCc1cc(O)c2c(c1)OC(C)(CCC=C(C)C)C=C2` (stereo not drawn) [CBC, cannabichromene], the MCP-2 production entry in [1] (5 μM) is recorded as “no effect”; in [1] (10 μM), “no effect”; in [1] (20 μM), “able to reduce”.

As for `CCCCCc1cc(O)c(C/C=C(\C)CCC=C(C)C)c(O)c1C(=O)O` [CBGA, cannabigerolic acid], the MCP-2 protein levels result in test [1] was “No effect”.
